In brackets after ≈: the same amount, converted by molar mass. Values belong to the compound of their own block, whether it stands above or below them.
Experiments:
Mus musculus = experiment: Antidiabetic activity in six hour fasted type 2 diabetic C57BL/6 db/db mouse assessed as decrease in fasting blood glucose level at 250 mg/kg,po for 4 weeks by Glucose analyzer; assay type: functional; design: scale not given: the % may be the effect or the level left
[1] = Inhibition of Lipoxygenase (unknown origin); design: species or system Homo sapiens
Leishmania major = experiment: Antileishmanial activity against Leishmania major MHOM/IL/80/Friendlin assessed as reduction in parasite growth incubated for 24 hrs by resazurin dye based analysis; assay type: functional, organism-based
Alpha-synuclein = Alpha-synuclein (Homo sapiens, UniProt P37840); experiment: Inhibition of wild type full length recombinant alpha-synuclein (unknown origin) expressed in Escherichia coli by spectrophotometric analysis
Splenocyte [2] = experiment: Immunomodulatory activity in mouse splenocytes assessed as maximum effect in CD3+ T cell production at 4 microg/ml incubated for 24 hrs by flow cytometry relative to control; assay type: functional; settings: dose 4 µg/ml
Splenocyte [3] = experiment: Immunomodulatory activity in mouse splenocytes assessed as maximum effect in CD4+ T cell production at 4 microg/ml incubated for 24 hrs by flow cytometry relative to control; assay type: functional; settings: dose 4 µg/ml
Rattus norvegicus [4] = experiment: Anti-inflammatory activity against serotonin-induced paw edema in Sprague-Dawley rat assessed as inhibition of paw edema at 10 mg/kg, po measured after 5 hrs relative to control; assay type: functional; design: scale not given: the % may be the effect or the level left
Rattus norvegicus [5] = species on record: Rattus norvegicus; experiment: Antioxidant activity in Vitamin E deficient rat model assessed as onset of ascorbate/Fe2+/ADP complex-initiated peroxidation delayed time by measuring onset of peroxidation (lag phase) at 0.5 mM by Thiobarbituric acid substance assay; assay type: functional
Rattus norvegicus [6] = species on record: Rattus norvegicus; experiment: Antioxidant activity in Vitamin E deficient rat model assessed as onset of ascorbate/Fe2+/ADP complex-initiated peroxidation delayed time by measuring onset of peroxidation (lag phase) at 0.25 mM by Thiobarbituric acid substance assay; assay type: functional

Compound: O=C(/C=C/c1ccc(O)c(O)c1)O[C@@H]1C[C@](O)(C(=O)O)C[C@@H](O)[C@H]1O [CHLOROGENIC ACID]
- Activity (Mus musculus): 31%

- IC50 [1]: 45.3 µM
Compound: COc1cc(/C=C/C(=O)CC(=O)/C=C/c2ccc(O)c(OC)c2)ccc1O [CURCUMIN]

Compound: O=c1oc2c(O)c(O)cc3c(=O)oc4c(O)c(O)cc1c4c23 [ELLAGIC ACID]
- EC50 (Leishmania major): 0.9 µg/mL (≈ 2.98 µM)

- IC50 (Alpha-synuclein): 13 µM
Compound: COc1cc(/C=C/C(=O)O)ccc1O [FERULATE]

Compound: O=c1c(O)c(-c2ccc(O)c(O)c2)oc2cc(O)ccc12 [FISETIN]
- Activity (Splenocyte [2]): 39.62%
- Activity (Splenocyte [3]): 28.92%

Compound: O=C(O)c1cc(O)c(O)c(O)c1 [GALLIC ACID]
- EC50 (Leishmania major): 5 µg/mL (≈ 29.4 µM)

Compound: COc1ccc2c(c1)c(CC(=O)O)c(C)n2C(=O)c1ccc(Cl)cc1 [INDOMETHACIN]
- Activity (Rattus norvegicus [4]): 34.2%

Compound: O=c1c(O)c(-c2cc(O)c(O)c(O)c2)oc2cc(O)cc(O)c12 [MYRICETIN]
- Time (Rattus norvegicus [5]): 14.3 min
- Time (Rattus norvegicus [6]): 12.6 min
